Experimental findings from publication PMC11940194, “Synthesis, Antiproliferative Activity, and ADME Profiling of Novel Racemic and Optically Pure Aryl-Substituted Purines and Purine Bioisosteres” (Biomolecules, 2025) are described below.

SMILES strings stand for the structures.

What all share (format): cell-based, human
Assay [1] concerns hepatocellular carcinoma (HepG2) cells. Description: Antiproliferative MTT assay, HepG2. The following applies: for IC50: Homo sapiens, HepG2, 72 h, 72 h incubation, MTT, mean ± SD; for SI (HepG2): SI = [IC50 HFF]/[IC50 HepG2]. As for the experimental part:
(§1) The human ATCC tumor cell lines breast adenocarcinoma (MCF7), colorectal carcinoma (HT-29), pancreatic ductal adenocarcinoma (CFPAC-1), hepatocellular carcinoma (HepG2), and normal skin fibroblasts (HFF) derived from ATCC (American Type Culture Collection) were cultured in Dulbecco’s Modified Eagle Medium (DMEM) or Minimum Essential Medium (MEM) supplemented with 10% fetal bovine serum (FBS), 2 mM L-glutamine, 100 U/mL penicillin, and 100 µg/mL streptomycin (Lonza, Basel, Switzerland) in a humidified atmosphere with 5% CO2 at 37 °C. For the experiment, carcinoma cell lines and normal human cell lines were seeded in 96-well microtiter plates at a density of 3000 cells per well and 5000 cells per well, respectively, depending on the doubling time of the specific cell line. The test substances were then added at fivefold, tenfold dilutions (0.01 to 100 µM), freshly prepared in the growth medium on the day of testing, and incubated for a further 72 h. After 72 h of incubation, the growth rate of the cells was determined using the MTT assay according to the manufacturer’s guidelines. […] The IC50 values were calculated from the dose–response curves using linear regression analysis. The experiment was performed in tetraplicates in two individual experiments.
(§2) Newly synthesized compounds were evaluated for their cytotoxic activity in vitro against four human cancer cell lines, including human breast adenocarcinoma (MCF-7), ductal pancreatic adenocarcinoma (CFPAC-1), colorectal carcinoma (HT-29), and hepatocellular carcinoma (HepG2), as well as on non-cancerous skin fibroblasts (HFF-1), to check for non-specific toxicity. Furthermore, 5-Fluorouracil (5-FU) was used as a reference drug. The results are expressed as 50% inhibitory concentration (IC50) values and are listed in Table 2, Table 3, Table 4 and Table 5.

For assay [2], the system named is colorectal carcinoma (HT-29) cells. In words: Antiproliferative MTT assay, HT-29. The following applies: for IC50: Homo sapiens, HT-29, 72 h, 72 h incubation, MTT, mean ± SD; for SI (HT-29): SI = [IC50 HFF]/[IC50 HT-29]. The method, then: as §1, §2
On the technique in general: Formazan colour is commonly taken as a measure of viable cells.

Assay [3] has as its system normal skin fibroblasts (HFF-1). In words: Cytotoxicity MTT assay, normal skin fibroblasts. Particulars: Homo sapiens, HFF-1, 72 h, 72 h incubation, mean ± SD. As for the experimental part:
as §1, §2

Assay [4] concerns pancreatic ductal adenocarcinoma (CFPAC-1) cells. Description: Antiproliferative MTT assay, CFPAC-1. Particulars: for IC50: Homo sapiens, CFPAC-1, 72 h, 72 h incubation, MTT, mean ± SD; for SI (CFPAC-1): SI = [IC50 HFF]/[IC50 CFPAC-1]. As for the experimental part: as §1, §2
In assay [5] the test system is breast adenocarcinoma (MCF7) cells. Description: Antiproliferative MTT assay, MCF-7. Particulars: for IC50: Homo sapiens, MCF7, 72 h incubation, MTT, mean ± SD; for SI (MCF-7): SI = [IC50 HFF]/[IC50 MCF-7]. As for the experimental part:
as §1, §2

One may read the IC50 as the concentration at which inhibition is half-maximal. A higher IC50 goes with a need for much substance. Consider `OC(Cn1cc(Cn2cnc3c(Cl)ncnc32)nn1)c1ccc(Cl)cc1` (stereo not drawn) [Compound 38b, 6-Chloro-9-((1-(2-hydroxy-2-(4-chlorophenyl)ethyl)-1H-1,2,3-triazol-4-yl)methyl)-9H-purine], for which the IC50 in assay [1] turned out to be 49 ± 13.3 µM; in assay [2], 56 ± 2.8 µM; in assay [3], 31 ± 5.3 µM; in assay [4], 36 ± 8.2 µM; in assay [5], 51 ± 8.9 µM. Also, the “SI (HepG2)” value in assay [1] is on record as 0.6. Also, in assay [2], the “SI (HT-29)” value worked out at 0.6.
As for `OCC(c1ccccc1)n1cc(Cn2ccc3c(Cl)ncnc32)nn1` (stereo not drawn) [Compound 41a, 4-Chloro-7-((1-(2-hydroxy-1-phenylethyl)-1H-1,2,3-triazol-4-yl)methyl)-7H-pyrrolo[2,3-d]pyrimidine], the IC50 in assay [1] turned out to be 38 ± 1.8 µM; in assay [2] it was 33 ± 3.2 µM; in assay [3] it was 62 ± 23.3 µM; in assay [4] it was 33 ± 4.5 µM; in assay [5] it was 39 ± 7.1 µM. Also, the “SI (CFPAC-1)” value in assay [4] was determined as 1.9. Moreover, the “SI (MCF-7)” value in assay [5] came to 1.6.
In the case of `OC(Cn1cc(Cn2ccc3c(Cl)ncnc32)nn1)c1ccccc1` (stereo not drawn) [Compound 41b, 4-Chloro-7-((1-(2-hydroxy-2-phenylethyl)-1H-1,2,3-triazol-4-yl)methyl)-7H-pyrrolo[2,3-d]pyrimidine], the IC50 in assay [1] is 50 ± 10.2 µM; in assay [2] it was 50 ± 1.3 µM; in assay [3], 44 ± 14.1 µM; in assay [4], 49 ± 11.3 µM; in assay [5], 44 ± 17.4 µM. Further, the “SI (CFPAC-1)” value in assay [4] was 0.9. In addition, the “SI (MCF-7)” value in assay [5] was 1.0.
`OCC(c1ccc(F)cc1)n1cc(Cn2ccc3c(Cl)ncnc32)nn1` (stereo not drawn) [Compound 42a, 4-Chloro-7-((1-(2-hydroxy-1-(4-fluorophenyl)ethyl)-1H-1,2,3-triazol-4-yl)methyl)-7H-pyrrolo[2,3-d]pyrimidine]: the half-inhibitory concentration (IC50) in assay [1] came to 47 ± 13.5 µM; in assay [2] it was 39 ± 1.9 µM; in assay [3], 51 ± 16.5 µM; in assay [4], 36 ± 2.2 µM; in assay [5], 39 ± 16.9 µM. The “SI (CFPAC-1)” value in assay [4] is given as 1.4. For the same compound, in assay [5], the “SI (MCF-7)” value was determined as 1.3.
Take `OC(Cn1cc(Cn2ccc3c(Cl)ncnc32)nn1)c1ccc(F)cc1` (stereo not drawn) [Compound 42b, 4-Chloro-7-((1-(2-hydroxy-2-(4-fluorophenyl)ethyl)-1H-1,2,3-triazol-4-yl)methyl)-7H-pyrrolo[2,3-d]pyrimidine]: the IC50 was determined as 38 ± 11 µM in assay [1]; 49 ± 14.6 µM in assay [2]; 51 ± 3.6 µM in assay [3]; 34 ± 3.2 µM in assay [4]; 45 ± 5.7 µM in assay [5]. Also, the “SI (CFPAC-1)” value in assay [4] is recorded as 1.5. The “SI (MCF-7)” value in assay [5] is 1.1.
In the case of `OCC(c1ccc(Cl)cc1)n1cc(Cn2ccc3c(Cl)ncnc32)nn1` (stereo not drawn) [Compound 43a, 4-Chloro-7-((1-(2-hydroxy-1-(4-chlorophenyl)ethyl)-1H-1,2,3-triazol-4-yl)methyl)-7H-pyrrolo[2,3-d]pyrimidine], the IC50 in assay [1] came out at 33 ± 4.2 µM; in assay [2] it was 33 ± 6.1 µM; in assay [3], 41 ± 16.3 µM; in assay [5] it was 24 ± 8.8 µM. Moreover, in assay [4], the “SI (CFPAC-1)” value stood at 5.1. For the same compound, the “SI (MCF-7)” value in assay [5] came to 1.7.
Regarding `OC(Cn1cc(Cn2ccc3c(Cl)ncnc32)nn1)c1ccc(Cl)cc1` (stereo not drawn) [Compound 43b, 4-Chloro-7-((1-(2-hydroxy-2-(4-chlorophenyl)ethyl)-1H-1,2,3-triazol-4-yl)methyl)-7H-pyrrolo[2,3-d]pyrimidine], the half-maximal inhibitory concentration (IC50) in assay [1] is 46 ± 2.2 µM; in assay [2], 28 ± 3.8 µM; in assay [3], 32 ± 14.1 µM; in assay [4] it was 48 ± 4.9 µM; in assay [5], 39 ± 10.1 µM. Also, the “SI (CFPAC-1)” value in assay [4] came to 0.7. Also, the “SI (MCF-7)” value in assay [5] is 0.8.
Regarding `OCC(c1ccc(F)cc1)n1cc(Cn2cnc3c(Cl)nccc32)nn1` (stereo not drawn) [Compound 47a, 4-Chloro-1-((1-(2-hydroxy-1-(4-fluorophenyl)ethyl)-1H-1,2,3-triazol-4-yl)methyl)-1H-imidazo[4,5-c]pyridine], the concentration for half-maximal inhibition (IC50) is greater than 100 µM in assay [1]; greater than 100 µM in assay [2]; 75 ± 14.2 µM in assay [3]; 51 ± 6.5 µM in assay [4]; 63 ± 8.4 µM in assay [5].
For the compound `OC(Cn1cc(Cn2cnc3c(Cl)nccc32)nn1)c1ccc(F)cc1` (stereo not drawn) [Compound 47b, 4-Chloro-1-((1-(2-hydroxy-2-(4-fluorophenyl)ethyl)-1H-1,2,3-triazol-4-yl)methyl)-1H-imidazo[4,5-c]pyridine], the 50% inhibitory concentration (IC50) in assay [1] is 55 ± 8.8 µM; in assay [2] it was 65 ± 12.6 µM; in assay [3] it was 18 ± 2.9 µM; in assay [4], 18 ± 0.8 µM; in assay [5] it was 21 ± 2.6 µM. In addition, in assay [1], the “SI (HepG2)” value turned out to be 0.3.
As for `OCC(c1ccc(Cl)cc1)n1cc(Cn2cnc3c(Cl)nccc32)nn1` (stereo not drawn) [Compound 48a, 4-Chloro-1-((1-(2-hydroxy-1-(4-chlorophenyl)ethyl)-1H-1,2,3-triazol-4-yl)methyl)-1H-imidazo[4,5-c]pyridine], the concentration for half-maximal inhibition (IC50) in assay [1] was greater than 100 µM; in assay [2], greater than 100 µM; in assay [3], greater than 100 µM; in assay [4], greater than 100 µM; in assay [5] it was 96 ± 1.8 µM.
As to `OC(Cn1cc(Cn2cnc3c(Cl)nccc32)nn1)c1ccc(Cl)cc1` (stereo not drawn) [Compound 48b, 4-Chloro-1-((1-(2-hydroxy-2-(4-chlorophenyl)ethyl)-1H-1,2,3-triazol-4-yl)methyl)-1H-imidazo[4,5-c]pyridine], the concentration for half-maximal inhibition (IC50) in assay [1], in assay [2], in assay [3], in assay [4] and in assay [5] was greater than 100 µM each time.
Consider `O[C@@H](Cn1cc(Cn2cnc3c(Cl)ncnc32)nn1)c1ccccc1` [Compound (R)-36b, (R)-6-Chloro-9-((1-(2-hydroxy-2-phenylethyl)-1H-1,2,3-triazol-4-yl)methyl)-9H-purine], for which the IC50 in assay [1] is 57 ± 9.7 µM; in assay [2], 86 ± 11.6 µM; in assay [3] it was greater than 100 µM; in assay [4], 66 ± 3.2 µM; in assay [5], 61 ± 3.7 µM. In addition, the “SI (HepG2)” value in assay [1] was greater than 1.8. Besides, the “SI (HT-29)” value in assay [2] is on record as greater than 1.2.
On to `O[C@@H](Cn1cc(Cn2cnc3c(Cl)ncnc32)nn1)c1ccc(F)cc1` [Compound (R)-37b, (R)-6-Chloro-9-((1-(2-hydroxy-2-(4-fluorophenyl)ethyl)-1H-1,2,3-triazol-4-yl)methyl)-9H-purine], for which the IC50 in assay [1] is 64 ± 3.1 µM; in assay [2] it was greater than 100 µM; in assay [3], 35 ± 5.5 µM; in assay [4] it was greater than 100 µM; in assay [5] it was greater than 100 µM. For the same compound, the “SI (HepG2)” value in assay [1] is listed as 0.6.
Turning to `O[C@@H](Cn1cc(Cn2cnc3c(Cl)ncnc32)nn1)c1ccc(Cl)cc1` [Compound (R)-38b], the IC50 in assay [1] was determined as 39 ± 10.5 µM; in assay [2] it was 51 ± 17.8 µM; in assay [3], 31 ± 13.4 µM; in assay [4] it was 60 ± 10.3 µM; in assay [5], 64 ± 4.8 µM. The “SI (HepG2)” value in assay [1] was 0.8. For the same compound, in assay [2], the “SI (HT-29)” value is recorded as 0.6.
Regarding `O[C@@H](Cn1cc(Cn2ccc3c(Cl)ncnc32)nn1)c1ccccc1` [Compound (R)-41b, (R)-4-Chloro-7-((1-(2-hydroxy-2-phenylethyl)-1H-1,2,3-triazol-4-yl)methyl)-7H-pyrrolo[2,3-d]pyrimidine], the concentration for half-maximal inhibition (IC50) in assay [1] was 52 ± 2.7 µM; in assay [2] it was 46 ± 2.3 µM; in assay [3], 23 ± 5.8 µM; in assay [4] it was 58 ± 12.1 µM; in assay [5] it was 46 ± 2.7 µM. In assay [4], the “SI (CFPAC-1)” value is given as 0.4. The “SI (MCF-7)” value in assay [5] was 0.5.
